Results: US20260028354A1, “TETRAHYDRONAPHTHALENE DERIVATIVES AS ESTROGEN RECEPTOR DEGRADERS” (REGENT OF THE UNIVERSITY OF MICHIGAN, priority 2022, published 2026)

test: Western blot analysis for "B" compounds; type: cell-based; conditions: read-out: Traditional Western Degradation Potency (DC50)
Experimental: Western Blot Analysis. Western blot analysis was performed essentially as described previously. The cells treated with indicated compounds were lysed in Radioimmunoprecipitation Assay Protein Lysis and Extraction Buffer (25 mmol/I. Tris.HCl, pH 7.6, 150 mmol/L, NaCl, 1% Nonidet P-40, 1% sodium deoxycholate, and 0.1% sodium dodecyl sulfate) containing proteinase inhibitor cocktail (Roche Diagnostics, Mannheim, Germany). Equal amounts of total protein were electrophoresed through 10% SDS-polyacrylamide gels after determination of protein concentration by BCA assay (Fisher Scientific, Pittsburgh, PA), The separated protein bands were transferred onto PVDF membranes (GE Healthcare Life Sciences, Marlborough, MA) and blotted against different antibodies, as indicated. The blots were scanned, and the band intensities were quantified using GelQuant.NET software provided by biochemlabsolutions.com. The relative mean intensity of target proteins was expressed after normalization to the intensity of glyceraldehyde-3-phosphate dehydrogenase bands.

Row | SMILES | DC50
1 | O=C1CCC(N2C(=O)c3cc4c(cc3C2=O)CN(C(=O)C2CCN(C3CCN(c5ccc([C@@H]6c7ccc(O)cc7CC[C@@H]6c6ccc(F)cc6)cc5)CC3)CC2)C4)C(=O)N1 (mixture of isomers) [Compound B6, 2-(2,6-dioxopiperidin-3-yl)-6-(1′-(4-((1R,2S)-2-(4-fluorophenyl)-6-hydroxy-1,2,3,4-tetrahydronaphthalen-1-yl)phenyl)-[1,4'-bipiperidine]-4-carbonyl)-6,7-dihydropyrrolo[3,4-f]isoindole-1,3(2H,5H)-dione] | < 10 nM
2 | O=C1CCC(N2C(=O)c3cc4c(cc3C2=O)CN(CC2CCN(C(=O)C3CCN(c5ccc([C@@H]6c7ccc(O)cc7CC[C@@H]6c6ccccc6)cc5)CC3)CC2)C4)C(=O)N1 (mixture of isomers) [Compound B8, 2-(2,6-dioxopiperidin-3-yl)-6-((1-(1-(4-((1R,2S)-6-hydroxy-2-phenyl-1,2,3,4-tetrahydronaphthalen-1-yl)phenyl)piperidine-4-carbonyl)piperidin-4-yl)methyl)-6,7-dihydropyrrolo[3,4-f]isoindole-1,3(2H,5H)-dione] | 10 to 100 nM
3 | O=C1CCC(N2C(=O)c3cc4c(cc3C2=O)CN(C2CN(C(=O)C3CCN(c5ccc([C@@H]6c7ccc(O)cc7CC[C@@H]6c6ccccc6)cc5)CC3)C2)C4)C(=O)N1 (mixture of isomers) [Compound B9, 2-(2,6-dioxopiperidin-3-yl)-6-(1-(1-(4-((1R,2S)-6-hydroxy-2-phenyl-1,2,3,4-tetrahydronaphthalen-1-yl)phenyl)piperidine-4-carbonyl)azetidin-3-yl)-6,7-dihydropyrrolo[3,4-f]isoindole-1,3(2H,5H)-dione] | 10 to 100 nM
4 | O=C1CCC(N2C(=O)c3cc4c(cc3C2=O)CN(CC2CN(C(=O)C3CCN(c5ccc([C@@H]6c7ccc(O)cc7CC[C@@H]6c6ccccc6)cc5)CC3)C2)C4)C(=O)N1 (mixture of isomers) [Compound B10, 2-(2,6-dioxopiperidin-3-yl)-6-((1-(1-(4-((1R,2S)-6-hydroxy-2-phenyl-1,2,3,4-tetrahydronaphthalen-1-yl)phenyl)piperidine-4-carbonyl)azetidin-3-yl)methyl)-6,7-dihydropyrrolo[3,4-f]isoindole-1,3(2H,5H)-dione] | 10 to 100 nM
5 | O=C1CCC(N2C(=O)c3cc4c(cc3C2=O)CN(CC(=O)N2CC3(CCN(c5ccc([C@@H]6c7ccc(O)cc7CC[C@@H]6c6ccc(F)cc6)cc5)CC3)C2)C4)C(=O)N1 (mixture of isomers) [Compound B11, 2-(2,6-dioxopiperidin-3-yl)-6-(2-(7-(4-((1R,2S)-2-(4-fluorophenyl)-6-hydroxy-1,2,3,4-tetrahydronaphthalen-1-yl)phenyl)-2,7-diazaspiro[3.5]nonan-2-yl)-2-oxoethyl)-6,7-dihydropyrrolo[3,4-f]isoindole-1,3(2H,5H)-dione] | < 10 nM
6 | O=C1CCC(N2C(=O)c3cc4c(cc3C2=O)CN(CC(=O)N2CCCC(Oc3ccc([C@@H]5c6ccc(O)cc6CC[C@@H]5c5ccccc5)cc3)C2)C4)C(=O)N1 (mixture of isomers) [Compound B13, 2-(2,6-dioxopiperidin-3-yl)-6-(2-(3-(4-((1R,2S)-6-hydroxy-2-phenyl-1,2,3,4-tetrahydronaphthalen-1-yl)phenoxy)piperidin-1-yl)-2-oxoethyl)-6,7-dihydropyrrolo[3,4-f]isoindole-1,3(2H,5H)-dione] | > 100 nM
7 | O=C1CCC(N2C(=O)c3cc4c(cc3C2=O)CN(C2CC(C(=O)N3CCCC(Oc5ccc([C@@H]6c7ccc(O)cc7CC[C@@H]6c6ccccc6)cc5)C3)C2)C4)C(=O)N1 (mixture of isomers) [Compound B14, 2-(2,6-dioxopiperidin-3-yl)-6-(3-(3-(4-((1R,2S)-6-hydroxy-2-phenyl-1,2,3,4-tetrahydronaphthalen-1-yl)phenoxy)piperidine-1-carbonyl)cyclobutyl)-6,7-dihydropyrrolo[3,4-f]isoindole-1,3(2H,5H)-dione] | > 100 nM

The remaining lines, values ahead:

Row | DC50 | SMILES
8 | < 10 nM | O=C1CCC(N2Cc3cc4c(cc3C2=O)CN(C2CCN(CC3CCN(c5ccc([C@@H]6c7ccc(O)cc7CC[C@@H]6c6ccccc6)cc5)CC3)CC2)C4)C(=O)N1 (mixture of isomers) [Compound B3, 3-(6-(1-((1-(4-((1R,2S)-6-hydroxy-2-phenyl-1,2,3,4-tetrahydronaphthalen-1-yl)phenyl)piperidin-4-yl)methyl)piperidin-4-yl)-1-oxo-3,5,6,7-tetrahydropyrrolo[3,4-f]isoindol-2(1H)-yl)piperidine-2,6-dione]
9 | 10 to 100 nM | O=C1CCC(N2C(=O)c3cc4c(cc3C2=O)CN(CC(=O)N2CC3(C2)CN(c2ccc([C@@H]5c6ccc(O)cc6CC[C@@H]5c5ccccc5)cc2)C3)C4)C(=O)N1 (mixture of isomers) [Compound B4, 2-(2,6-dioxopiperidin-3-yl)-6-(2-(6-(4-((1R,2S)-6-hydroxy-2-phenyl-1,2,3,4-tetrahydronaphthalen-1-yl)phenyl)-2,6-diazaspiro[3.3]heptan-2-yl)-2-oxoethyl)-6,7-dihydropyrrolo[3,4-f]isoindole-1,3(2H,5H)-dione]
10 | 10 to 100 nM | O=C1CCC(N2C(=O)c3cc4c(cc3C2=O)CN(C2CCC(C(=O)N3CCCC(Oc5ccc([C@@H]6c7ccc(O)cc7CC[C@@H]6c6ccccc6)cc5)C3)CC2)C4)C(=O)N1 (mixture of isomers) [Compound B15, 2-(2,6-dioxopiperidin-3-yl)-6-(4-(3-(4-((1R,2S)-6-hydroxy-2-phenyl-1,2,3,4-tetrahydronaphthalen-1-yl)phenoxy)piperidine-1-carbonyl)cyclohexyl)-6,7-dihydropyrrolo[3,4-f]isoindole-1,3(2H,5H)-dione]
11 | 10 to 100 nM | O=C1CCC(N2C(=O)c3cc4c(cc3C2=O)CN(C(=O)CN2CC3(CCN(c5ccc([C@@H]6c7ccc(O)cc7CC[C@@H]6c6ccccc6)cc5)CC3)C2)C4)C(=O)N1 (mixture of isomers) [Compound B17, 2-(2,6-dioxopiperidin-3-yl)-6-(2-(7-(4-((1R,2S)-6-hydroxy-2-phenyl-1,2,3,4-tetrahydronaphthalen-1-yl)phenyl)-2,7-diazaspiro[3.5]nonan-2-yl)acetyl)-6,7-dihydropyrrolo[3,4-f]isoindole-1,3(2H,5H)-dione]
12 | 10 to 100 nM | O=C1CCC(N2C(=O)c3cc4c(cc3C2=O)CN(C(=O)CN2CCC3(CC2)CCN(c2ccc([C@@H]5c6ccc(O)cc6CC[C@@H]5c5ccccc5)cc2)CC3)C4)C(=O)N1 (mixture of isomers) [Compound B18, 2-(2,6-dioxopiperidin-3-yl)-6-(2-(9-(4-((1R,2S)-6-hydroxy-2-phenyl-1,2,3,4-tetrahydronaphthalen-1-yl)phenyl)-3,9-diazaspiro[5.5]undecan-3-yl)acetyl)-6,7-dihydropyrrolo[3,4-f]isoindole-1,3(2H,5H)-dione]
13 | 10 to 100 nM | O=C1CCC(N2C(=O)c3cc4c(cc3C2=O)CN(C(=O)CN2CC3(CCN(c5ccc([C@@H]6c7ccc(O)cc7CC[C@@H]6c6ccc(F)cc6)cc5)CC3)C2)C4)C(=O)N1 (mixture of isomers) [Compound B19, 2-(2,6-dioxopiperidin-3-yl)-6-(2-(7-(4-((1R,2S)-2-(4-fluorophenyl)-6-hydroxy-1,2,3,4-tetrahydronaphthalen-1-yl)phenyl)-2,7-diazaspiro[3.5]nonan-2-yl)acetyl)-6,7-dihydropyrrolo[3,4-f]isoindole-1,3(2H,5H)-dione]
